In patent publication US20040028714A1, “Composition having insect repellent characteristics” (priority 2000, published 2004):
Where “and” joins values, the source holds several entries; their conditions need not be identical. Equal values may be shown once.

Columns and labels:
Type in all cases: in vivo
[1] = tested on: German cockroaches (Blatella Germanica); test: Cockroach repellency screening on partially treated formica surface (Example 2); conditions: 20 mg/m^2 on formica; for Percentage Dead / Percentage Present, Treated Section / Percentage Present, Untreated Section / Percentage Present, Treated Section, Average / Percentage Present, Untreated Section, Average: cockroaches; for Percentage Present, Treated Section, Average / Percentage Present, Untreated Section, Average: average of days 1, 2 and 3; for Number of Cockroaches present, Treated Section / Number of Cockroaches present, Untreated Section / Number of Cockroaches, Dead: single replicates (n = 20); for Number of Cockroaches present, Treated Section, Total / Number of Cockroaches present, Untreated Section, Total / Number of Cockroaches, Dead, Total: total of 4 replicates (80)
Experimental: The effectiveness of compounds of formula I as an insect repellent was determined using German cockroaches exposed to a formica surface partially treated/partially untreated with a test compound of formula I. The study was conducted in an air conditioned laboratory at a temperature of 22°±2° C. under a normal day/night cycle, using German cockroaches (Blatella Germanica) of mixed sex and age. The study was conducted over a 3 day period and the repellent effectiveness assessed 1, 2 and 3 days after cockroach introduction. A rectangle of formica 40 cm×30 cm was treated at 20 mg/m^2 with a test compound of formula I. This was achieved by soaking a paper wipe (Rag on a Roll ca 20 cm×20 cm) in a solution of the test compound in ethanol, squeezing out the excess liquid and wiping over the surface to give the required coverage. This was checked by weighing the cloth after application. The surface was allowed to dry. A similar rectangle was wiped with ethanol alone (untreated surface). The treated formica rectangle was placed on the bench and a plastic container was placed on the rectangle. This had been treated with fluon to prevent cockroach escape. Two sheets of formica (10 cm×10 cm) were placed on the formica, one on the treated surface and one on the untreated surface. This acted as a cockroach harbourage. The formica sheet to be used in the treated section was treated at the same rate as the treated formica. The formica was placed on two 1 cm high bottle tops to allow cockroaches access under the formica. 20 German cockroaches were added (5 adults and 15 nymphs) to the centre of the formica. No food and water was supplied for these cockroaches. At 1, 2 and 3 days after cockroach introduction the number of cockroaches under each harbourage was counted. After each count the harbourage position was change to avoid the possibility of […] were replaced and new cockroaches were added to replace any dead cockroaches. The above was repeated 3 times to provide a total of 4 replicates.

[2] = tested on: German cockroaches (Blatella Germanica); test: Cockroach repellency in tray with half-treated vinyl, compared with DEET and N-methyl-neodecanamide (Example 3); conditions: cockroaches, 20 mg/m^2 on vinyl
Experimental: The effectiveness of compound 2 (example 1) as an insect repellent was determined using German cockroaches exposed to a formica surface partially treated/partially un-treated, and was directly compared to the repellency of the well known insect repellents DEET (N,N-diethyl-meta-toluamide) and N-methyl-neodecanamide. The study was conducted in an air conditioned laboratory at a temperature of 22°±2° C. under a normal day/night cycle, using German cockroaches (Blatella Germanica) of mixed sex and age. The study was conducted over a 7 days period and the repellent effectiveness was assessed 1, 3, 5 and 7 days after cockroach introduction. Each tray used in the study consisted of a melamine square tray of sides 1.8m×1.8m and 20 cm high walls. The upper part of the wall was provided with electrical strip, which prevented cockroaches escaping. A square of vinyl 90 cm×180 cm was treated with the test compound at 20 mg/m^2. This was achieved by soaking a paper wipe (Rag on a Roll, ca. 20 cm×20 cm) in a solution of the test compound in ethanol, squeezing out the excess liquid and wiping over the surface to give the required coverage. This was checked by weighing the cloth after application. The surface was allowed to dry. The treated vinyl square was placed in one half of the tray. A similar untreated square was placed in the other half of the tray. This square was treated with ethanol alone. Two sheets of formica (30 cm×30 cm) were placed at one corner of each tray, one on the treated surface and one on the untreated surface. This acted as a cockroach harbourage. The formica sheet to be used in the treated section was treated at the same rate as the treated formica. The formica was placed on two 1 cm high bottle tops to allow cockroaches access under the formica. 50 German cockroaches were added (15 adults and 35 nymphs) to the middle of the tray. No food and water was supplied for these cockroaches. At 1, 2, 3 and 7 days after cockroach introduction the number of cockroaches under each harbourage was counted. After each count the harbourage position was change to avoid the possibility of habituation to one location, the harbourages were replaced and new cockroaches were added to replace any dead cockroaches. The above was repeated 3 times to provide a total of 4 replicates.

[3] = tested on: Black Ants (Ochetellus sp); test: Ant repellency on half-treated formica (Example 4); conditions: ants, 20 mg/m^2 on formica
Experimental: The effectiveness of compound 2 (example 1) as an insect repellent was determined using ants exposed to a formica surface partially treated/partially untreated with compound 2, and was directly compared to the repellency of the well known insect repellents Farnesol and Dihydrofarnesal.
The study was conducted in an air conditioned laboratory at a temperature of 22°±2° C. under a normal day/night cycle, using Black Ants (Ochetellus sp) of mixed sex and age. The study ws conducted over a 3 day period and the repellent effectiveness assessed 1, 2 and 3 days after ant introduction.
One half of a rectangle of formica 40 cm×30 cm was treated at 20 mg/m^2 with the test compounds. This was achieved by soaking a paper wipe (Rag On A Roll approximately 20 cm×20 cm) in a solution of the test compound in ethanol, squeezing out the excess liquid and wiping over the surface to give the required coverage. This was checked by weighing the cloth after application. The surface was allowed to dry. The other half was wiped with ethanol alone (untreated surface).
The treated formica rectangle was placed on the bench and a glass ring (diameter 20 cm) was placed on the rectangle. This had been treated with fluon to prevent ant escape.
A small plastic container 2 cm in diameter was placed on the formica, one on the treated surface and one on the untreated surface. The plastic container placed on the treated surface had repellent applied in the same way as the treated formica. The plastic container on the untreated surface was wiped with ethanol.
24 hours after treatment (1 day) 20 ants were added to the centre of the formica. No food and water was supplied for these ants. 2 hours after this the number of ants on the treated and untreated surfaces was counted.
The above was repeated 3 times to provide a total of 4 replicates.
The above was repeated at 2 days and 3 days. New ants were used at each time period.

[4] = 1 day after cockroach introduction
[5] = 2 days after cockroach introduction
[6] = 3 days after cockroach introduction

SMILES | Percentage Dead ([1]; 1 day after treatment) [%] | Percentage Present, Treated Section ([1]; 1 day after treatment) [%] | Percentage Present, Untreated Section ([1]; 1 day after treatment) [%] | Percentage Dead ([1]; 2 days after treatment) [%] | Percentage Present, Treated Section ([1]; 2 days after treatment) [%] | Percentage Present, Untreated Section ([1]; 2 days after treatment) [%] | Percentage Dead ([1]; 3 days after treatment) [%] | Percentage Present, Treated Section ([1]; 3 days after treatment) [%] | Percentage Present, Untreated Section ([1]; 3 days after treatment) [%] | Percentage Present, Treated Section, Average [1] [%] | Percentage Present, Untreated Section, Average [1] [%] | further results
CCN(CC)C(=O)C1CC(C)CCC1C(C)C (centres unmarked) [Compound 6, N,N-diethyl-p-menthane-3-carboxamide] | 0 | 11.3 | 88.7 | 0 | 13.8 | 86.2 | 2.5 | 6.3 | 91.2 | 10.5 | 88.7 | –
CCCNC(=O)C1CC(C)CCC1C(C)C (centres unmarked) [Compound 3, N-propyl-p-menthane-3-carboxamide] | 0 | 16.3 | 83.7 | 1.2 | 6.3 | 92.5 | 0 | 6.3 | 93.7 | 9.6 | 90.0 | –
CC1CCC(C(C)C)C(C(=O)N(C)C)C1 (centres unmarked) [Compound 5, N,N-dimethyl-p-menthane-3-carboxamide] | 0 | 15.0 | 85.0 | 1.2 | 10.0 | 88.8 | 1.2 | 15.0 | 83.8 | 13.3 | 85.9 | –
CCN(CC)C(=O)c1cccc(C)c1 [DEET, N,N-diethyl-meta-toluamide, reference compound] | – | – | – | – | – | – | – | – | – | – | – | Percentage Dead ([2]; 1 day after treatment): 0.5%; Percentage Present, Treated Section ([2]; 1 day after treatment): 3.0%; Percentage Present, Untreated Section ([2]; 1 day after treatment): 96.5%; Percentage Dead ([2]; 2 days after treatment): 1.5%; Percentage Present, Treated Section ([2]; 2 days after treatment): 2.5%; Percentage Present, Untreated Section ([2]; 2 days after treatment): 96.0%; Percentage Dead ([2]; 3 days after treatment): 0.5%; Percentage Present, Treated Section ([2]; 3 days after treatment): 27.5%; Percentage Present, Untreated Section ([2]; 3 days after treatment): 72.0%; Percentage Dead ([2]; 7 days after treatment): 1.0%; Percentage Present, Treated Section ([2]; 7 days after treatment): 55.0%; Percentage Present, Untreated Section ([2]; 7 days after treatment): 44.0%
CNC(=O)C1CC(C)CCC1C(C)C (centres unmarked) [Compound 1, N-methyl-p-menthane-3-carboxamide] | 0 | 18.7 | 81.3 | 1.2 | 16.3 | 82.5 | 1.2 | 13.8 | 85.0 | 16.3 | 82.9 | Number of Cockroaches present, Treated Section [1, 4]: 5 and 3 and 7 and 0; Number of Cockroaches present, Untreated Section [1, 4]: 15 and 17 and 13 and 20; Number of Cockroaches, Dead [1, 4]: 0; Number of Cockroaches present, Treated Section, Total [1, 4]: 15; Number of Cockroaches present, Untreated Section, Total [1, 4]: 65; Number of Cockroaches, Dead, Total [1, 4]: 0; Number of Cockroaches present, Treated Section [1, 5]: 5 (2×) and 3 and 0; Number of Cockroaches present, Untreated Section [1, 5]: 15 and 17 and 14 and 20; Number of Cockroaches, Dead [1, 5]: 0 (3×) and 1; Number of Cockroaches present, Treated Section, Total [1, 5]: 13; Number of Cockroaches present, Untreated Section, Total [1, 5]: 66; Number of Cockroaches, Dead, Total [1, 5]: 1; Number of Cockroaches present, Treated Section [1, 6]: 4 (2×) and 3 and 0; Number of Cockroaches present, Untreated Section [1, 6]: 16 (3×) and 20; Number of Cockroaches, Dead [1, 6]: 0 (3×) and 1; Number of Cockroaches present, Treated Section, Total [1, 6]: 11; Number of Cockroaches present, Untreated Section, Total [1, 6]: 68; Number of Cockroaches, Dead, Total [1, 6]: 1
CC(C)=CCC/C(C)=C/CCC(C)CC=O (centres unmarked) [Dihydrofarnesal, reference compound] | – | – | – | – | – | – | – | – | – | – | – | Percentage Dead ([3]; 1 day after treatment): 0%; Percentage Present, Treated Section ([3]; 1 day after treatment): 20.0%; Percentage Present, Untreated Section ([3]; 1 day after treatment): 80.0%; Percentage Dead ([3]; 2 days after treatment): 0%; Percentage Present, Treated Section ([3]; 2 days after treatment): 21.2%; Percentage Present, Untreated Section ([3]; 2 days after treatment): 78.8%; Percentage Dead ([3]; 3 days after treatment): 0%; Percentage Present, Treated Section ([3]; 3 days after treatment): 12.5%; Percentage Present, Untreated Section ([3]; 3 days after treatment): 87.5%; Percentage Dead, Average ([3]; average of days 1, 2 and 3): 0%; Percentage Present, Treated Section, Average ([3]; average of days 1, 2 and 3): 17.9%; Percentage Present, Untreated Section, Average ([3]; average of days 1, 2 and 3): 82.1%; Percentage Present, Treated Section, Average ([3]; average of days 1, 2 and 3, listed as Dihydrofarnesol): approximately 17%
CC1CCC(C(C)C)C(C(=O)Nc2ccccc2)C1 (centres unmarked) [Compound 4, N-phenyl-p-menthane-3-carboxamide] | 0 | 46.3 | 53.7 | 0 | 35.0 | 65.0 | 1.2 | 12.5 | 86.3 | 31.3 | 68.3 | –
